From ChEMBL document CHEMBL5252522 (Eur J Med Chem, 2016)

How the values were obtained:
Histone deacetylase 3 = Histone deacetylase 3 (Homo sapiens, UniProt O15379); assay: Inhibition of HDAC3 (unknown origin)
[1] = biological target: T1, Protein deacetylase HDAC6 (Homo sapiens, UniProt Q9UBN7); assay: Inhibition of HDAC6 (unknown origin)
T1 sequence (Q9UBN7 whole entry): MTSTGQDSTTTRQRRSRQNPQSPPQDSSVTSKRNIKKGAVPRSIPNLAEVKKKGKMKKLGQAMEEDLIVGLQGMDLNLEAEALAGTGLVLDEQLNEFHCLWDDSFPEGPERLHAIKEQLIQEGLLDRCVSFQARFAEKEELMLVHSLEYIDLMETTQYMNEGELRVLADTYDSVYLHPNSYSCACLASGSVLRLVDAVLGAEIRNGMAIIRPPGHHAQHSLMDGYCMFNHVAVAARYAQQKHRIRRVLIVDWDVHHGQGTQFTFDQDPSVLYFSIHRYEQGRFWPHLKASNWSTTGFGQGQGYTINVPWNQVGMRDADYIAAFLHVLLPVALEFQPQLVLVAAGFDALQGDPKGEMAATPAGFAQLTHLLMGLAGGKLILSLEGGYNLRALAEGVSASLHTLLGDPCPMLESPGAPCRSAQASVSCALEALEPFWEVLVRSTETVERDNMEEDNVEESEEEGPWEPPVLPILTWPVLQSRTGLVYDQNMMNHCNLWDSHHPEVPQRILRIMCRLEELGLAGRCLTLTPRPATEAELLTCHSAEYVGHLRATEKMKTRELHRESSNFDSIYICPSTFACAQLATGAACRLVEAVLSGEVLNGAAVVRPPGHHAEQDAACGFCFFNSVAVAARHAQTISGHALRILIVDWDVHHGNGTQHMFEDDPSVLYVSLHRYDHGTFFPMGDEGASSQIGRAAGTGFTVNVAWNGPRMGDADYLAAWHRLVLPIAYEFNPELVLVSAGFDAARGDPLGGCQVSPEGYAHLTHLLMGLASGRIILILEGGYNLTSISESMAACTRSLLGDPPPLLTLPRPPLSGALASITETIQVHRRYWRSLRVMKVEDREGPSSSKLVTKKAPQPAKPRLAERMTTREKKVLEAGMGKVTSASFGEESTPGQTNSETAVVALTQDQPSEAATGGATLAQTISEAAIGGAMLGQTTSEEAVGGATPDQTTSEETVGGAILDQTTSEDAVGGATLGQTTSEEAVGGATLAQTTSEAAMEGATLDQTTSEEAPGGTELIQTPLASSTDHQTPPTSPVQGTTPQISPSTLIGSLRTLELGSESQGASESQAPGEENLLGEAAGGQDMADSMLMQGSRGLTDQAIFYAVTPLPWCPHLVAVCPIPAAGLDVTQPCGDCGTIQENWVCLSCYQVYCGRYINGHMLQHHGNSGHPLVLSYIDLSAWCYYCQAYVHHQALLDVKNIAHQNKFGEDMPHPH

Histone deacetylase 1 = Histone deacetylase 1 (Homo sapiens, UniProt Q13547); assay: Inhibition of HDAC1 (unknown origin)
Chain of Histone deacetylase 1 (Q13547 whole entry): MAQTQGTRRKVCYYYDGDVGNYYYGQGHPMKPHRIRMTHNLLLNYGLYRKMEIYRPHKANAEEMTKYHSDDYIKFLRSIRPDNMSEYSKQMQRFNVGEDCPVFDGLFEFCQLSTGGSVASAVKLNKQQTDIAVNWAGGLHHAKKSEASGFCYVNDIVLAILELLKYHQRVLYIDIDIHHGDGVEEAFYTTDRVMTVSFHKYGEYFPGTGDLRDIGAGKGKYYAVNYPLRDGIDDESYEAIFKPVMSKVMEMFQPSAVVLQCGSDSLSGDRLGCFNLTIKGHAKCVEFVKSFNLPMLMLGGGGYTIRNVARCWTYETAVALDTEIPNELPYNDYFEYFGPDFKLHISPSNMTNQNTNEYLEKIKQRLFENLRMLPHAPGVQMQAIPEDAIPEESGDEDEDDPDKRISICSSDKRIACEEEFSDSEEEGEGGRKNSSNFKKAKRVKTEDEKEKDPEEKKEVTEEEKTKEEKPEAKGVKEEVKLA

Histone deacetylase 8 = biological target: T2, Histone deacetylase 8 (Homo sapiens, UniProt Q9BY41); assay: Inhibition of HDAC8 (unknown origin)
T2 sequence (Q9BY41 whole entry): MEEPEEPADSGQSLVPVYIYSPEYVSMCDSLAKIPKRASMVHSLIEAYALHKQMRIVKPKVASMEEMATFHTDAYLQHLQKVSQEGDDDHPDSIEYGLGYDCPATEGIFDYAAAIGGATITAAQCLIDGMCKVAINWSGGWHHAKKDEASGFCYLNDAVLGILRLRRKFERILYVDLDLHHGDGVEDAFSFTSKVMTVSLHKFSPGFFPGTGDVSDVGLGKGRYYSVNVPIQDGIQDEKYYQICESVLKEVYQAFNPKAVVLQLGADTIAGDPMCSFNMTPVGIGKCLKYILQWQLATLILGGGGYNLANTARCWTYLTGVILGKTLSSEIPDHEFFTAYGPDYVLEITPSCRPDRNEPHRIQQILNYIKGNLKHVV

Histone deacetylase 5 = Histone deacetylase 5 (Homo sapiens, UniProt Q9UQL6); assay: Inhibition of HDAC5 (unknown origin)
Chain of Histone deacetylase 5 (Q9UQL6 whole entry): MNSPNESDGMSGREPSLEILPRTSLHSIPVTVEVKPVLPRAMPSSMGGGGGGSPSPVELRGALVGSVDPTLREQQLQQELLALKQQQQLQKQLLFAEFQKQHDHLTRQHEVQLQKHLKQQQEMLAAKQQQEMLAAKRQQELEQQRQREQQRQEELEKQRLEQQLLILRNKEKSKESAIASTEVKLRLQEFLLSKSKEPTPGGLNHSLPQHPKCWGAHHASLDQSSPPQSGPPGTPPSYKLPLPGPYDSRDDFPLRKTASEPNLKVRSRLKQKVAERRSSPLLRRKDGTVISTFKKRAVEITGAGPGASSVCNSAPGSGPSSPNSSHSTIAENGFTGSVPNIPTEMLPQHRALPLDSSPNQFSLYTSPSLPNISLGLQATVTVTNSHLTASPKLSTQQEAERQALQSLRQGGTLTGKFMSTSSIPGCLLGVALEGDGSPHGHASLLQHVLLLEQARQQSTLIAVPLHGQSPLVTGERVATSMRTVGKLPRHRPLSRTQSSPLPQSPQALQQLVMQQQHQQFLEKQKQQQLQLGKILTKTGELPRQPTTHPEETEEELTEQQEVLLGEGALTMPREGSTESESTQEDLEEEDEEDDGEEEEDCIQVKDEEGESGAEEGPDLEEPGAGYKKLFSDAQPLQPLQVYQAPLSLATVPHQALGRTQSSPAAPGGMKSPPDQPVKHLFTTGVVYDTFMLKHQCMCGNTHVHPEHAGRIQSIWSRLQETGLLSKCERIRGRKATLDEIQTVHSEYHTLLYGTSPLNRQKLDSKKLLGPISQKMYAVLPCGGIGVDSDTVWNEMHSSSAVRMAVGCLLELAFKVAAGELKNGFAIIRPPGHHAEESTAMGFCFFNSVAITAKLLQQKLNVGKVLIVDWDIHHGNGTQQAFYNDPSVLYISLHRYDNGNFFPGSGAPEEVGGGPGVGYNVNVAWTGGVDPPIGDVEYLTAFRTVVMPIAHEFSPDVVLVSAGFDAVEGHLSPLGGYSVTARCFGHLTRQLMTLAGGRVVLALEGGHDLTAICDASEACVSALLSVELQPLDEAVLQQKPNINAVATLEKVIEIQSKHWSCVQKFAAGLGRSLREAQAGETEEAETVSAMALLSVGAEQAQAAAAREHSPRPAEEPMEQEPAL

Histone deacetylase 7 = biological target: T3, Histone deacetylase 7 (Homo sapiens, UniProt Q8WUI4); assay: Inhibition of HDAC7 (unknown origin)
T3 sequence (Q8WUI4 whole entry): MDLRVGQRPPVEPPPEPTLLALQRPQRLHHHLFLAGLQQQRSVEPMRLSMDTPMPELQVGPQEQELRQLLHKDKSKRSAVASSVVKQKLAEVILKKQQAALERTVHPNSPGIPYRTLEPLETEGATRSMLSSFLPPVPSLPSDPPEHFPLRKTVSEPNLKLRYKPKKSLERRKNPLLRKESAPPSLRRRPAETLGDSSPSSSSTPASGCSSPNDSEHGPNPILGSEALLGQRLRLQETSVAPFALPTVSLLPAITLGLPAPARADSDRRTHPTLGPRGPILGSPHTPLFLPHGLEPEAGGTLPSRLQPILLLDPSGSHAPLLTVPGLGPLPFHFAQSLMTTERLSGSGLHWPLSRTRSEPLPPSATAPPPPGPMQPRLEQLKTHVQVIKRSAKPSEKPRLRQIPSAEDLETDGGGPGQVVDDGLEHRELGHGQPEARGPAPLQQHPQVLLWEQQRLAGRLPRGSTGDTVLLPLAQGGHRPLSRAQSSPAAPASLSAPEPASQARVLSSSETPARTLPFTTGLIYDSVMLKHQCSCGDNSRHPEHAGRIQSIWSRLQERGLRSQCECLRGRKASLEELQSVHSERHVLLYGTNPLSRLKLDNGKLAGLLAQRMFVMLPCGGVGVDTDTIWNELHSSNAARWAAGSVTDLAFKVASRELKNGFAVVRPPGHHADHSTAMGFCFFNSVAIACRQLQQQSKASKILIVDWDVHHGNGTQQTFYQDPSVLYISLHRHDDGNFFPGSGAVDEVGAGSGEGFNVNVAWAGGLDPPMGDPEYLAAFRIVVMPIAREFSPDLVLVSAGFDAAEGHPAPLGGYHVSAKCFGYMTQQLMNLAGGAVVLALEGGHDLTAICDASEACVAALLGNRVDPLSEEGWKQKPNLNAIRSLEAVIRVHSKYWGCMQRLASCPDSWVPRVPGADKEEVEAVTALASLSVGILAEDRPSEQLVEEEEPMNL

Histone deacetylase 9 = Histone deacetylase 9 (Homo sapiens, UniProt Q9UKV0); assay: Inhibition of HDAC9 (unknown origin)
Chain of Histone deacetylase 9 (Q9UKV0 whole entry): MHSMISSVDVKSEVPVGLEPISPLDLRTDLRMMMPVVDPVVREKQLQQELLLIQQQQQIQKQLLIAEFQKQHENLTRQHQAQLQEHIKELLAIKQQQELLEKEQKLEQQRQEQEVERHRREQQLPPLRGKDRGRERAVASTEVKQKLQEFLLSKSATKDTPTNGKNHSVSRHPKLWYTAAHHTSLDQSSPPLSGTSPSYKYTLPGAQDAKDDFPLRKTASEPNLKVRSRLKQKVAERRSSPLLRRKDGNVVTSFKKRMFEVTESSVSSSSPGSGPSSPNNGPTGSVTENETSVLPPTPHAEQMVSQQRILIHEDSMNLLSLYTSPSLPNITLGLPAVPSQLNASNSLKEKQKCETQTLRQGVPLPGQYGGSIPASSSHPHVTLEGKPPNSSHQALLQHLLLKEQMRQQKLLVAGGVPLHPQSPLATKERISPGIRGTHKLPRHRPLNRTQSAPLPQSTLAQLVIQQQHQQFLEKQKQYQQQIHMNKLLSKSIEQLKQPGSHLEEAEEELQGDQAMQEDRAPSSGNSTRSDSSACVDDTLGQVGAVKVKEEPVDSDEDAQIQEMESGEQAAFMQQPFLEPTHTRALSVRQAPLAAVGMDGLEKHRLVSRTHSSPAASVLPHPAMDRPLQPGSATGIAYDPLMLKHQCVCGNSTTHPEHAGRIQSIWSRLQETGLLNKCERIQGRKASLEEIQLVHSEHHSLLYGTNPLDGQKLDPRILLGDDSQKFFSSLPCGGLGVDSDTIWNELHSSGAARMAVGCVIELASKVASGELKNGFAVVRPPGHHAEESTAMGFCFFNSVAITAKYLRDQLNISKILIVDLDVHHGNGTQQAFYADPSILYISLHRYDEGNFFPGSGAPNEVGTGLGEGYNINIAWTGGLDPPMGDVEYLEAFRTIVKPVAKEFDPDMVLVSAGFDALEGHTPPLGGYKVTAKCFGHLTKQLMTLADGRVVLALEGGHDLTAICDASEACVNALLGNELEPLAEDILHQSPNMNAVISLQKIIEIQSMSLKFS

Histone deacetylase 4 = Histone deacetylase 4 (Homo sapiens, UniProt P56524); assay: Inhibition of HDAC4 (unknown origin)
Chain of Histone deacetylase 4 (P56524 whole entry): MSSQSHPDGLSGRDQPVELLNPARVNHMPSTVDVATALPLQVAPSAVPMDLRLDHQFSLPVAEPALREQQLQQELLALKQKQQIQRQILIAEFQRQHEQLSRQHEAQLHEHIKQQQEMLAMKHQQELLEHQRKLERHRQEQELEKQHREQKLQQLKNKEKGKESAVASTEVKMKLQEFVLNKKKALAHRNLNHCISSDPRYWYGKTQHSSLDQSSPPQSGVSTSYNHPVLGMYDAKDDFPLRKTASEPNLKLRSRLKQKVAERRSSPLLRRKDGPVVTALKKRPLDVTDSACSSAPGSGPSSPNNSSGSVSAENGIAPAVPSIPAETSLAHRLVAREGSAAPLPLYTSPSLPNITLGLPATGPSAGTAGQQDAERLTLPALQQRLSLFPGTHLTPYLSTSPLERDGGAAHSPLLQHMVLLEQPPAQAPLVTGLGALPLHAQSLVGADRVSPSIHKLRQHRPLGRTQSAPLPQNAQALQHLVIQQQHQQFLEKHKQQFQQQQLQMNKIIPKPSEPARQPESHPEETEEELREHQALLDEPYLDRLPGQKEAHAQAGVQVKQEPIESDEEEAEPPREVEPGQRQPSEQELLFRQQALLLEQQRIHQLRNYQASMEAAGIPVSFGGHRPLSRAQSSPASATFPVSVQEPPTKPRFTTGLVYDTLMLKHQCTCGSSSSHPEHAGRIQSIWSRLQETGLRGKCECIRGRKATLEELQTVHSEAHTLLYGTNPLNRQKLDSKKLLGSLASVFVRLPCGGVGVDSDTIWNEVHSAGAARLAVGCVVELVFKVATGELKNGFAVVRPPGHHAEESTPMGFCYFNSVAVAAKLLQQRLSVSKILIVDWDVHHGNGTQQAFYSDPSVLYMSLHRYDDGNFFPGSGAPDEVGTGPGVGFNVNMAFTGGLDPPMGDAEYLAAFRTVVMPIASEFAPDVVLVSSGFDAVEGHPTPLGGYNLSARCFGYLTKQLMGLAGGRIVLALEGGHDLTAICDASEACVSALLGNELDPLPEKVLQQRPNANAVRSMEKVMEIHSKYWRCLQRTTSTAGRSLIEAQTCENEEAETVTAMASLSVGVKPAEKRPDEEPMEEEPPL

Histone deacetylase 2 = Histone deacetylase 2 (Homo sapiens, UniProt Q92769)
Chain of Histone deacetylase 2 (Q92769 whole entry): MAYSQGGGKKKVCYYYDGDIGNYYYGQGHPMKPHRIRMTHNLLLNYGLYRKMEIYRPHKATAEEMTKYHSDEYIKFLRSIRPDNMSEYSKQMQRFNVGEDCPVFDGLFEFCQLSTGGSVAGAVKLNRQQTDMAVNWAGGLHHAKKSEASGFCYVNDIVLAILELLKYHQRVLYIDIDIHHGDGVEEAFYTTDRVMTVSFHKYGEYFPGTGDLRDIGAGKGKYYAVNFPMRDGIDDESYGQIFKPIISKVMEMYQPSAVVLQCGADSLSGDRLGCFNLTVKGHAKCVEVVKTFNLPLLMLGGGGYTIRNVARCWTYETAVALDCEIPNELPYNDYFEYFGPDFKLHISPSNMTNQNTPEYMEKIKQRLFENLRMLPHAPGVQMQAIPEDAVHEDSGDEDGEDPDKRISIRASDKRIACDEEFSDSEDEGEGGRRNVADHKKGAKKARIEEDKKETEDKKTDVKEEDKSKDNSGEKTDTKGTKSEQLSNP

Histone deacetylase = type: protein assay, Homo sapiens
[2] = biological target: T4, Polyamine deacetylase HDAC10 (Homo sapiens, UniProt Q969S8); assay: Inhibition of HDAC10 (unknown origin)
T4 sequence (Q969S8 whole entry): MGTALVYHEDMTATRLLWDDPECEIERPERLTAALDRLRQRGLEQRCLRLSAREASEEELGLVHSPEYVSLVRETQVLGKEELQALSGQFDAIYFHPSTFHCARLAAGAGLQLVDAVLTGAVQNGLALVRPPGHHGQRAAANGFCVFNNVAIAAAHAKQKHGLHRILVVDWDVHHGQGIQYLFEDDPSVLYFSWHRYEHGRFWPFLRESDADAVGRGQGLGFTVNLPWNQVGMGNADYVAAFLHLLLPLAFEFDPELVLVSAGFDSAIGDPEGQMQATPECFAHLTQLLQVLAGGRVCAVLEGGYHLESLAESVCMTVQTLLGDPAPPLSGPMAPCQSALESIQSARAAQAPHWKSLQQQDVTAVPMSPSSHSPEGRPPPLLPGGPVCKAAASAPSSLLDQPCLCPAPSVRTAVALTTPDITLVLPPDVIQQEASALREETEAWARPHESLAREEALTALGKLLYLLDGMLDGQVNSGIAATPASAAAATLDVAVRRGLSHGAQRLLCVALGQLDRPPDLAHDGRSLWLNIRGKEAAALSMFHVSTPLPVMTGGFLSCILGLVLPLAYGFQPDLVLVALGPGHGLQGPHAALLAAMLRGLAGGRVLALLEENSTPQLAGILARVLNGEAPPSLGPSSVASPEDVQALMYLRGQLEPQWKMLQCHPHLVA

Histone deacetylase 11 = biological target: T5, Histone deacetylase 11 (Homo sapiens, UniProt Q96DB2); assay: Inhibition of HDAC11 (unknown origin)
T5 sequence (Q96DB2 whole entry): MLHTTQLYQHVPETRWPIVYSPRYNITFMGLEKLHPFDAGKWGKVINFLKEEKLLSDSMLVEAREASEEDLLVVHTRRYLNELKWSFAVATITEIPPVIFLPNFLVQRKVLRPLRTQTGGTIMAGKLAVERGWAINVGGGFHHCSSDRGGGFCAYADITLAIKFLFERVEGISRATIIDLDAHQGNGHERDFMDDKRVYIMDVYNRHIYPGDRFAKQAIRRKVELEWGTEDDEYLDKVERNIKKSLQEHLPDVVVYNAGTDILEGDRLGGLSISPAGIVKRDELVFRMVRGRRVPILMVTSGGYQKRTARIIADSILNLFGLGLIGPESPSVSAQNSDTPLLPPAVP

Chain of Histone deacetylase 3 (O15379 whole entry): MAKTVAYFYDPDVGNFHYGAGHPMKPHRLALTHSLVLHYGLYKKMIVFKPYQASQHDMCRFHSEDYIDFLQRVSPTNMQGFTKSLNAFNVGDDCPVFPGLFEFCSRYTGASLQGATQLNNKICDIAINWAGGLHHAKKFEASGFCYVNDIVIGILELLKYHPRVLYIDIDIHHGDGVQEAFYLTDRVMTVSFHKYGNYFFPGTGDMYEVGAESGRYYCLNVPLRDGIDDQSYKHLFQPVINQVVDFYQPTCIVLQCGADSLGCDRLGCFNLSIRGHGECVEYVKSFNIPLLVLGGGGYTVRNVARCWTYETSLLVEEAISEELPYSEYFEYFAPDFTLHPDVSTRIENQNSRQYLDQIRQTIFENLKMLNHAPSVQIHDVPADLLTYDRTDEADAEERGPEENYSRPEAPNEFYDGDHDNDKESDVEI

Compound | IC50 (Histone deacetylase 3) | IC50 [1] | IC50 (Histone deacetylase 1) | IC50 (Histone deacetylase 8) | IC50 (Histone deacetylase 2) | other results
COc1cc2c(Nc3cccc(/C=C/C(=O)NO)c3)ncnc2cc1OCCCN1CCOCC1 | 180 nM | 560 nM | 160 nM |  |  | 
[11CH3]n1cc(CCNCc2ccc(/C=C/C(=O)NO)cc2)c2ccccc21 | 0.4 nM | 1.6 nM | 0.2 nM | 1040 nM | 1.2 nM | IC50 (Histone deacetylase 5): 0.099 µM; IC50 (Histone deacetylase 7): 2040 nM; IC50 (Histone deacetylase 9): 4.85 µM; IC50 (Histone deacetylase 4): 655 nM
CCc1nnc(NS(=O)(=O)c2ccc(N/C=C3\Sc4ccccc4C3=O)cc2)s1 |  |  |  |  |  | IC50 (Histone deacetylase): 4.2 µM
CC1(C)C(=O)N(c2ccc(C#N)c(C(F)(F)F)c2)C(=O)N1Cc1ccc(-c2cn(CCCCCCC(=O)NO)nn2)cc1 |  |  |  |  |  | IC50 (Histone deacetylase): 0.69 µM
O=C(/C=C/c1cccc(Nc2ncnc3cc4c(cc23)OCCO4)c1)NO | 500 nM | 560 nM | 290 nM |  |  | 
O=C(CCCCCCNC(=O)c1c(-c2ccc(O)cc2)sc2cc(O)ccc12)NO | 128 nM |  | 168 nM | 400 nM | 665 nM | 
CC[N+]1=C(/C=C/C=C/C=C2/N(CCCCC(=O)N(CCc3c(C)[nH]c4ccccc34)Cc3ccc(/C=C/C(=O)NO)cc3)c3ccc4c(S(=O)(=O)O)cc(S(=O)(=O)O)cc4c3C2(C)C)C(C)(C)c2c1ccc1c(S(=O)(=O)[O-])cc(S(=O)(=O)O)cc21 |  |  |  |  |  | IC50 (Histone deacetylase): 0.0096 µM
CCc1nnc(NS(=O)(=O)c2ccc(Nc3nc(C)c(C(=O)Nc4ccccc4)s3)cc2)s1 |  |  |  |  |  | IC50 (Histone deacetylase): 32 µM
CC(C)Cc1c(OCCOc2cccc(/C=C/C(=O)NO)c2)ccc2c1OC(=O)CC2 |  | 6 nM | 66.7 nM |  |  | 
OC1(c2ccccc2)C=C(c2ccccc2)CO1 (stereo not drawn) |  |  | 2740 nM |  | 170 nM | 

Now from value to molecule, other results behind:

IC50 (Histone deacetylase 3) | IC50 [1] | IC50 (Histone deacetylase 1) | IC50 (Histone deacetylase 8) | IC50 (Histone deacetylase 2) | Compound | other results
5200 nM |  | 10 nM |  | 20 nM | CN(C)Cc1ccc(C(=O)Nc2cc(-c3ccccc3)ccc2N)cc1 | 
3.4 nM | 5 nM | 5 nM | 150 nM | 0.2 nM | CN(CCc1ccccc1)S(=O)(=O)c1cccc(/C=C/C(=O)NO)c1 | IC50 (Histone deacetylase 5): 10.7 µM; IC50 (Histone deacetylase 9): 16.9 µM; IC50 (Histone deacetylase 4): 500 nM
1700 nM |  | 2900 nM | 2800 nM |  | O=C(NO)c1ccc(CC(=O)N(CCO)c2ccccc2)cc1 | IC50 [2]: 3 µM; IC50 (Histone deacetylase 5): > 10 µM; IC50 (Histone deacetylase 7): > 10000 nM; IC50 (Histone deacetylase 9): > 10 µM; IC50 (Histone deacetylase 4): > 10000 nM; IC50 (Histone deacetylase 11): > 10 µM
 |  | 24 nM | 152 nM |  | O=C(CCc1ccc(Oc2cccs2)c(O)c1)Nc1ccc(C(=O)NO)cc1 | 
748 nM |  | 1030 nM | 29900 nM | 1820 nM | O=C(CCCCCn1cc(-c2ccc(C(=O)c3c(-c4ccc(O)cc4)sc4cc(O)ccc34)cc2)nn1)NO | 
